# Source: article PMC5011342, “A high throughput drug screening assay to identify compounds that promote oligodendrocyte differentiation using acutely dissociated and purified oligodendrocyte precursor cells” (BMC Research Notes, 2016)
# Structures can show the parent of a compound that is named as a salt. Where two headings read alike, the source gives them in different places.
# Key:
# [1] = test system: acutely dissociated and purified rat OPCs; assay: Acute OL differentiation assay (MBP expression/cell, immunofluorescent image quantification); format: cell-based; conditions: Rattus norvegicus, sheet "All OLga data"
# Outline: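 This acute differentiation assay used purified rat OPCs from postnatal day 6–7 pups, seeded into PDL/laminin-coated 96-well plates in differentiation medium lacking PDGF and FGF. Compounds were applied in quadruplicate after a 1–2 h preincubation at 37 °C, 10 % CO2, with 0.1 % DMSO negative and 40 ng/ml T3 positive controls in eight wells. After fixation on DIV4, anti-MBP immunofluorescence images yielded MBP expression/cell.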
# expanded OPCs = assay: cells; conditions: for 0.1 µM (% DMSO) / 1 µM (% DMSO) / 10 µM (% DMSO): alamarBlue viability of expanded OPCs, relative to DMSO control; for 0.1 µM (% DMSO): compound at 0.1 µM; for 1 µM (% DMSO): compound at 1 µM; for 10 µM (% DMSO): compound at 10 µM; for viability at 0.1 µM / viability at 1 µM / viability at 10 µM: Rattus norvegicus, 72 h
# Outline: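 Toxicity screen: compounds added at 0.1, 1 and 10 µM to PDGF-AA-expanded OPCs in 96-well plates, 3-day incubation at 37 °C, 10% CO2, then alamarBlue 1:10 for 4 h with fluorescence readout. Results set screening doses of 10/2, 2/0.4 or 0.4/0.08 µM.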
# [2] = test compound at 2 uM, NCC library screen, relative to quetiapine, read-out: 2 uM (% Quet)
# [3] = test compound at 10 uM, NCC library screen, relative to quetiapine, read-out: 10 uM (% Quet)
# [4] = 2 uM test compound, relative to quetiapine, read-out: OL differentiation, 2 uM (% Quet)
# [5] = 10 uM test compound, relative to quetiapine, read-out: OL differentiation, 10 uM (% Quet)
# [6] = read-out: 0.1 µM (% DMSO), alamarBlue viability of expanded OPCs, compound at 0.1 µM, sheet All Tox data
# [7] = read-out: 1 µM (% DMSO), alamarBlue viability of expanded OPCs, compound at 1 µM, sheet All Tox data
# [8] = read-out: 10 µM (% DMSO), alamarBlue viability of expanded OPCs, compound at 10 µM, sheet All Tox data
# [9] = 0.4 uM test compound, relative to quetiapine, read-out: OL differentiation, 0.4 uM (% Quet)
# [10] = read-out: 0.1 µM (% DMSO), alamarBlue viability, NCC library compound at 0.1 µM, sheet "All Tox data"
# [11] = read-out: 1 µM (% DMSO), alamarBlue viability, NCC library compound at 1 µM, sheet "All Tox data"
# [12] = read-out: 10 µM (% DMSO), alamarBlue viability, NCC library compound at 10 µM, sheet "All Tox data"
# [13] = test compound at 2 uM, MBP expression relative to quetiapine, NCC library screen, read-out: 2 uM (% Quet)
# [14] = test compound at 10 uM, MBP expression relative to quetiapine, NCC library screen, read-out: 10 uM (% Quet)
# [15] = test compound at 0.4 uM, NCC library screen, relative to quetiapine, read-out: 0.4 uM (% Quet)
smiles,measurement,setting,value
COc1cc(Cc2cnc(N)nc2N)cc(OC)c1OC [Trimethoprim],activation at 2 µM,[1]; [2],-30.5%
same,activation at 10 µM,[1]; [3],-40.8%
same,0.1 µM (% DMSO),expanded OPCs,93.8 % DMSO
same,1 µM (% DMSO),expanded OPCs,89.7 % DMSO
same,10 µM (% DMSO),expanded OPCs,86.5 % DMSO
CC[C@@H]1C=CC=CC[C@H](C)[C@@H](O)[C@@H](C)C(=O)[C@H](C)[C@@H](O)[C@H](C)C(=O)[C@H](C)[C@@H](O)[C@H](C)C=CC(=O)O[C@H]2[C@@H](C)[C@@H](CC1)O[C@@]1(CC[C@@H](C)[C@@H](C[C@H](C)O)O1)[C@@H]2C [Oligomycin C],activation at 2 µM,[1]; [4],-33.8%
same,activation at 10 µM,[1]; [5],-128%
same,viability at 0.1 µM,expanded OPCs; [6],86.9%
same,viability at 1 µM,expanded OPCs; [7],87%
same,viability at 10 µM,expanded OPCs; [8],68.4%
O=C1CN(/N=C/c2ccc([N+](=O)[O-])o2)C(=O)N1 [Nitrofurantoin],activation at 2 µM,[1]; [2],-26.2%
same,activation at 10 µM,[1]; [3],-72.2%
same,0.1 µM (% DMSO),expanded OPCs,101.2 % DMSO
same,1 µM (% DMSO),expanded OPCs,101.9 % DMSO
same,10 µM (% DMSO),expanded OPCs,87.2 % DMSO
CN(C/C=C/C#CC(C)(C)C)Cc1cccc2ccccc12 [Terbinafine],activation at 0.4 µM,[1]; [9],-31.1%
same,activation at 2 µM,[1]; [4],-91.1%
same,viability at 0.1 µM,expanded OPCs; [10],90.5%
same,viability at 1 µM,expanded OPCs; [11],92.2%
same,viability at 10 µM,expanded OPCs; [12],11%
O=C(O)CCNC(=O)c1ccc(/N=N/c2ccc(O)c(C(=O)O)c2)cc1 [Balsalazide],activation at 2 µM,[1]; [2],10.7%
same,activation at 10 µM,[1]; [3],19.1%
same,viability at 0.1 µM,expanded OPCs; [10],88.1%
same,viability at 1 µM,expanded OPCs; [11],92%
same,viability at 10 µM,expanded OPCs; [12],85.1%
C[C@]12C/C(=C/O)C(=O)C[C@@H]1CC[C@@H]1[C@@H]2CC[C@@]2(C)[C@H]1CC[C@]2(C)O [Oxymetholone],activation at 0.4 µM,[1]; [9],-20%
same,activation at 2 µM,[1]; [4],-31.7%
same,viability at 0.1 µM,expanded OPCs; [6],82.4%
same,viability at 1 µM,expanded OPCs; [7],79.2%
same,viability at 10 µM,expanded OPCs; [8],48.9%
CCC[C@@H]1C[C@@H](C(=O)N[C@@H]([C@H]2O[C@H](SC)[C@H](O)[C@@H](O)[C@H]2O)[C@@H](C)O)N(C)C1 [Lincomycin],activation at 2 µM,[1]; [13],12.6%
same,activation at 10 µM,[1]; [14],-2.9%
same,0.1 µM (% DMSO),expanded OPCs,93.6 % DMSO
same,1 µM (% DMSO),expanded OPCs,94.1 % DMSO
same,10 µM (% DMSO),expanded OPCs,87.7 % DMSO
NNCCc1ccccc1 [Phenelzine],activation at 2 µM,[1]; [4],18%
same,activation at 10 µM,[1]; [5],18.6%
same,activation at 2 µM,[1]; [13],3.7%
same,activation at 10 µM,[1]; [14],-4.2%
same,viability at 0.1 µM,expanded OPCs; [6],78.4%
same,viability at 1 µM,expanded OPCs; [7],80.2%
same,viability at 10 µM,expanded OPCs; [8],93.1%
same,0.1 µM (% DMSO),expanded OPCs,94.0 % DMSO
same,1 µM (% DMSO),expanded OPCs,95.0 % DMSO
same,10 µM (% DMSO),expanded OPCs,87.1 % DMSO
NCCc1ccccn1 [2-(2-aminoethyl)pyridine],activation at 2 µM,[1]; [2],20.5%
same,activation at 10 µM,[1]; [3],16.9%
same,viability at 0.1 µM,expanded OPCs; [10],97.5%
same,viability at 1 µM,expanded OPCs; [11],81.9%
same,viability at 10 µM,expanded OPCs; [12],73.2%
CC(=O)[C@H]1CC[C@H]2[C@@H]3C[C@H](C)C4=CC(=O)CC[C@]4(C)[C@H]3[C@@H](O)C[C@]12C [Medrysone],activation at 2 µM,[1]; [2],-6%
same,activation at 10 µM,[1]; [3],-16.5%
same,viability at 0.1 µM,expanded OPCs; [10],130%
same,viability at 1 µM,expanded OPCs; [11],125%
same,viability at 10 µM,expanded OPCs; [12],121%
C[C@]12CC[C@@H]3c4ccc(O)cc4CC[C@H]3[C@@H]1CC[C@@H]2O [Estradiol],activation at 2 µM,[1]; [4],15.2%
same,activation at 10 µM,[1]; [5],32.1%
same,viability at 0.1 µM,expanded OPCs; [6],81.2%
same,viability at 1 µM,expanded OPCs; [7],75.5%
same,viability at 10 µM,expanded OPCs; [8],64.6%
CN(C)CCCN1c2ccccc2CCc2ccc(Cl)cc21 [Clomipramine],activation at 0.08 µM,"[1]; test compound at 0.08 uM, MBP expression relative to quetiapine, NCC library screen, read-out: 0.08 uM (% Quet)",18.5%
same,activation at 0.4 µM,"[1]; test compound at 0.4 uM, MBP expression relative to quetiapine, NCC library screen, read-out: 0.4 uM (% Quet)",-59.9%
same,0.1 µM (% DMSO),expanded OPCs,76.2 % DMSO
same,1 µM (% DMSO),expanded OPCs,37.7 % DMSO
same,10 µM (% DMSO),expanded OPCs,8.7 % DMSO
COc1ccc2c(c1)[C@]13CCCC[C@@H]1[C@H](C2)N(C)CC3 [Dextromethorphan],activation at 0.4 µM,[1]; [9],10.5%
same,activation at 2 µM,[1]; [4],44.5%
same,viability at 0.1 µM,expanded OPCs; [6],82.6%
same,viability at 1 µM,expanded OPCs; [7],86.9%
same,viability at 10 µM,expanded OPCs; [8],59.6%
C[C@@H]1C[C@H]2[C@@H]3C[C@H](F)C4=CC(=O)C=C[C@]4(C)[C@@]3(F)[C@@H](O)C[C@]2(C)[C@@]1(O)C(=O)SCF [Fluticasone],activation at 2 µM,[1]; [4],14.2%
same,activation at 10 µM,[1]; [5],-38.8%
same,viability at 0.1 µM,expanded OPCs; [6],103%
same,viability at 1 µM,expanded OPCs; [7],106%
same,viability at 10 µM,expanded OPCs; [8],112%
Cc1ccc(N(CC2=NCCN2)c2cccc(O)c2)cc1 [Phentolamine],activation at 2 µM,[1]; [13],-17.9%
same,activation at 10 µM,[1]; [14],-82.7%
same,0.1 µM (% DMSO),expanded OPCs,93.8 % DMSO
same,1 µM (% DMSO),expanded OPCs,88.6 % DMSO
same,10 µM (% DMSO),expanded OPCs,62.0 % DMSO
Nc1ncnc2c1ncn2[C@@H]1O[C@H](CO)[C@@H](O)[C@@H]1O [Vidarabine],activation at 0.4 µM,[1]; [15],-2.3%
same,activation at 2 µM,[1]; [2],-12.9%
same,viability at 0.1 µM,expanded OPCs; [10],90.6%
same,viability at 1 µM,expanded OPCs; [11],84.9%
same,viability at 10 µM,expanded OPCs; [12],48.9%
Cc1c(O)cccc1C(=O)N[C@@H](CSc1ccccc1)[C@H](O)CN1C[C@H]2CCCC[C@H]2C[C@H]1C(=O)NC(C)(C)C [Nelfinavir],activation at 0.4 µM,[1]; [9],-21.8%
same,activation at 2 µM,[1]; [4],-84.5%
same,viability at 0.1 µM,expanded OPCs; [6],100%
same,viability at 1 µM,expanded OPCs; [7],59%
same,viability at 10 µM,expanded OPCs; [8],11.3%
CCc1nn(CCCN2CCN(c3cccc(Cl)c3)CC2)c(=O)n1CCOc1ccccc1 [Nefazodone],activation at 0.4 µM,[1]; [9],-5.2%
same,activation at 2 µM,[1]; [4],0.4%
same,viability at 0.1 µM,expanded OPCs; [6],99.6%
same,viability at 1 µM,expanded OPCs; [7],111%
same,viability at 10 µM,expanded OPCs; [8],42.8%
C#C[C@]1(O)CC[C@H]2[C@@H]3CCC4=CC(=O)CC[C@@H]4[C@H]3CC[C@@]21C [Norethindrone],activation at 2 µM,[1]; [2],-0.9%
same,activation at 10 µM,[1]; [3],-32%
same,viability at 0.1 µM,expanded OPCs; [10],95%
same,viability at 1 µM,expanded OPCs; [11],87.2%
same,viability at 10 µM,expanded OPCs; [12],80.6%
COc1ccc([C@@H]2Sc3ccccc3N(CCN(C)C)C(=O)[C@@H]2OC(C)=O)cc1 [Diltiazem],activation at 0.4 µM,[1]; [15],-12.2%
same,activation at 2 µM,[1]; [2],-2.4%
same,0.1 µM (% DMSO),expanded OPCs,81.4 % DMSO
same,1 µM (% DMSO),expanded OPCs,67.2 % DMSO
same,10 µM (% DMSO),expanded OPCs,48.7 % DMSO
Clc1cccc(Cl)c1N=C1NCCN1 [Clonidine hydrochloride],activation at 2 µM,[1]; [4],-12.5%
same,activation at 10 µM,[1]; [5],-14.3%
same,viability at 0.1 µM,expanded OPCs; [10],91.9%
same,viability at 1 µM,expanded OPCs; [11],84.3%
same,viability at 10 µM,expanded OPCs; [12],77.2%
Cc1nc2ccc(CN(C)c3ccc(C(=O)N[C@@H](CCC(=O)O)C(=O)O)s3)cc2c(=O)[nH]1 [Raltitrexed],activation at 2 µM,[1]; [2],-13.8%
same,activation at 10 µM,[1]; [3],-1.3%
same,viability at 0.1 µM,expanded OPCs; [10],71.4%
same,viability at 1 µM,expanded OPCs; [11],63.5%
same,viability at 10 µM,expanded OPCs; [12],59.6%
